Source: patent US10045983B2, “Heteroaryl pyridone and aza-pyrodine compounds” (Genentech, Inc., priority 2011, dated 2018)

test: CD69 Whole Blood Assay (CD69 Hu Blood FACS); type: cell-based, human; settings: Lymphocyte; human whole blood, anti-IgM activated B lymphocytes, FACS; IC70; Table 1; read-out: CD69 Hu Blood FACS IC70
Outline: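 Human whole blood stimulated by crosslinking surface IgM with goat F(ab′)2 anti-human IgM; inhibition of CD69 expression on B lymphocytes measured by flow cytometry.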

Compound | IC70 [nM]
CC[C@H]1CN(C2COC2)CCN1c1ccc(Nc2cc(-c3ccnc(-n4ccn5c6c(cc5c4=O)CCCC6)c3CO)cn(C)c2=O)nc1 [Example 165, 2-{5-[5-((S)-2-Ethyl-4-oxetan-3-yl-piperazin-1-yl)-pyridin-2-ylamino]-3′-hydroxymethyl-1-methyl-6-oxo-1,6-dihydro-[3,4′]bipyridinyl-2′-yl}-6,7,8,9-tetrahydro-2H-pyrazino[1,2-a]indol-1-one] | 41.7
Cn1cc(-c2ccnc(N3CCc4c(cc5n4CCCC5)C3=O)c2CO)cc(Nc2ccc(N3CCN(C4COC4)CC3)cn2)c1=O [Example 139, 2-(3-(Hydroxymethyl)-4-(1-methyl-5-(5-(4-(oxetan-3-yl)piperazin-1-yl)pyridine-2-ylamino)-6-oxo-1,6-dihydropyridin-3-yl)pyridin-2-yl)-3,4,6,7,8,9-hexahydropyrido[3,4-b]indolizin-1(2H)-one] | 326
Cn1cc(-c2ccnc(N3CCn4c(cc5c4CCCC5)C3=O)c2CO)cc(Nc2ccc(N3CCN(C4COC4)CC3)cn2)c1=O [Example 103, 2-(3-(Hydroxymethyl)-4-(1-methyl-5-(5-(4-(oxetan-3-yl)piperazin-1-yl)pyridin-2-ylamino)-6-oxo-1,6-dihydropyridin-3-yl)pyridin-2-yl)-3,4,6,7,8,9-hexahydropyrazino[1,2-a]indol-1(2H)-one] | 77.6
Cn1cc(-c2ccnc(N3CCn4c(cc5c4CC(C)(C)C5)C3=O)c2CO)cc(Nc2cnccn2)c1=O [Example 188, 2-[3′-Hydroxymethyl-1-methyl-6-oxo-5-(pyrazin-2-ylamino)-1,6-dihydro-[3,4′]bipyridinyl-2′-yl]-7,7-dimethyl-3,4,7,8-tetrahydro-2H,6H-cyclopenta[4,5]pyrrolo[1,2-a]pyrazin-1-one] | 601

same assay, conditions: Lymphocyte; human whole blood, anti-IgM activated B lymphocytes, FACS; IC70; Table 2 (unit inferred); read-out: CD69 Hu Blood FACS (IC70)

Compound | IC70 [nM]
CN(Cc1cc(Nc2cc(-c3ccnc(N4CCn5c(cc6c5CC(C)(C)C6)C4=O)c3CO)cn(C)c2=O)nn1C)C1COC1 [Example 302, 3-[3-(hydroxymethyl)-4-[1-methyl-5-[[1-methyl-5-[[methyl(oxetan-3-yl)amino]methyl]pyrazol-3-yl]amino]-6-oxo-3-pyridyl]-2-pyridyl]-7,7-dimethyl-1,2,6,8-tetrahydrocyclopenta[3,4]pyrrolo[3,5-b]pyrazin-4-one] | 22.8
CC(=O)N1CCn2nc(Nc3cc(-c4ccnc(-n5ncc6c7c(sc6c5=O)CCCC7)c4CO)cn(C)c3=O)cc2C1 [Example 247, 3-[4-[5-[(5-acetyl-6,7-dihydro-4H-pyrazolo[1,5-a]pyrazin-2-yl)amino]-1-methyl-6-oxo-3-pyridyl]-3-(hydroxymethyl)-2-pyridyl]-6,7,8,9-tetrahydrobenzothiopheno[2,3-d]pyridazin-4-one] | 145
COCCN1CCN(c2ccc(Nc3cc(-c4ccnc(N5CCn6c(cc7c6CC(C)(C)C7)C5=O)c4CO)cn(C)c3=O)nc2)[C@@H](C)C1 [Example 340, 3-[3-(hydroxymethyl)-4-[5-[[5-[(2S)-4-(2-methoxyethyl)-2-methyl-piperazin-1-yl]-2-pyridyl]amino]-1-methyl-6-oxo-3-pyridyl]-2-pyridyl]-7,7-dimethyl-1,2,6,8-tetrahydrocyclopenta[3,4]pyrrolo[3,5-b]pyrazin-4-one] | 20.7
Cn1nc(-c2ccnc(-n3ncc4c5c(sc4c3=O)CCCC5)c2CO)cc(Nc2ccc(C(=O)N3CCOCC3)cn2)c1=O [Example 258, 3-[3-(hydroxymethyl)-4-[1-methyl-5-[[5-(morpholine-4-carbonyl)-2-pyridyl]amino]-6-oxo-pyridazin-3-yl]-2-pyridyl]-6,7,8,9-tetrahydrobenzothiopheno[2,3-d]pyridazin-4-one] | 646
C[C@H]1CN(C2COC2)CCN1c1cnc(Nc2cc(-c3ccnc(N4CCn5c(cc6c5CCCC6)C4=O)c3CO)cn(C)c2=O)cn1 [Example 228, 2-[3-(hydroxymethyl)-4-[1-methyl-5-[[5-[(2S)-2-methyl-4-(oxetan-3-yl)piperazin-1-yl]pyrazin-2-yl]amino]-6-oxo-3-pyridyl]-2-pyridyl]-3,4,6,7,8,9-hexahydropyrazino[1,2-a]indol-1-one] | 369
Cn1cc(-c2ccnc(N3CCn4c(cc5c4CC(C)(C)C5)C3=O)c2CO)cc(Nc2cccc(N)n2)c1=O [Example 221, 3-[4-[5-[(6-amino-2-pyridyl)amino]-1-methyl-6-oxo-3-pyridyl]-3-(hydroxymethyl)-2-pyridyl]-7,7-dimethyl-1,2,6,8-tetrahydrocyclopenta[3,4]pyrrolo[3,5-b]pyrazin-4-one] | 121
COC[C@@H](C)N1CCn2nc(Nc3cc(-c4ccnc(N5CCn6c(cc7c6CC(C)(C)C7)C5=O)c4CO)cn(C)c3=O)cc2C1 [Example 300, (R)-2-(3′-(hydroxymethyl)-5-((5-(1-methoxypropan-2-yl)-4,5,6,7-tetrahydropyrazolo[1,5-a]pyrazin-2-yl)amino)-1-methyl-6-oxo-1,6-dihydro-[3,4′-bipyridin]-2′-yl)-7,7-dimethyl-2,3,4,6,7,8-hexahydro-1H-cyclopenta[4,5]pyrrolo[1,2-a]pyrazin-1-one] | 24
CN1CC(Oc2ccc(Nc3cc(-c4ccnc(N5CCn6c(cc7c6CC(C)(C)C7)C5=O)c4CO)cn(C)c3=O)nc2)C1 [Example 207, 3-[3-(hydroxymethyl)-4-[1-methyl-5-[[5-(1-methylazetidin-3-yl)oxy-2-pyridyl]amino]-6-oxo-3-pyridyl]]-7,7-dimethyl-1,2,6,8-tetrahydrocyclopenta[3,4]pyrrolo[3,5-b]pyrazin-4-one] | 41.4
Cn1cc(-c2ccnc(N3CCn4c(cc5c4CC(C)(C)C5)C3=O)c2CO)cc(Nc2cnc(C#N)cn2)c1=O [Example 298, 5-[[5-[2-(7,7-dimethyl-4-oxo-1,2,6,8-tetrahydrocyclopenta[3,4]pyrrolo[3,5-b]pyrazin-3-yl)-3-(hydroxymethyl)-4-pyridyl]-1-methyl-2-oxo-3-pyridyl]amino]pyrazine-2-carbonitrile] | 869
C[C@H]1COCCN1C(=O)c1ccc(Nc2cc(-c3ccnc(N4CCn5c(cc6c5CC(C)(C)C6)C4=O)c3CO)cn(C)c2=O)nc1 [Example 257, 3-[3-(hydroxymethyl)-4-[1-methyl-5-[[5-[(3 S)-3-methylmorpholine-4-carbonyl]-2-pyridyl]amino]-6-oxo-3-pyridyl]-2-pyridyl]-7,7-dimethyl-1,2,6,8-tetrahydrocyclopenta[3,4]pyrrolo[3,5-b]pyrazin-4-one] | 21.6
Cn1cc(Nc2cc(-c3ccnc(N4CCn5c(cc6c5CC(C)(C)C6)C4=O)c3CO)cn(C)c2=O)nn1 [Example 293, 3-[3-(hydroxymethyl)-4-[1-methyl-5-[(1-methyltriazol-4-yl)amino]-6-oxo-3-pyridyl]-2-pyridyl]-7,7-dimethyl-1,2,6,8-tetrahydrocyclopenta[3,4]pyrrolo[3,5-b]pyrazin-4-one] | 69.1
Cn1cc(-c2ccnc(N3CCn4c(cc5c4CC(C)(C)C5)C3=O)c2CO)cc(Nc2ccc(C3CN(C4COC4)C3)cn2)c1=O [Example 272, 3-[3-(hydroxymethyl)-4-[1-methyl-5-[[5-[1-(oxetan-3-yl)azetidin-3-yl]-2-pyridyl]amino]-6-oxo-3-pyridyl]-2-pyridyl]-7,7-dimethyl-1,2,6,8-tetrahydrocyclopenta[3,4]pyrrolo[3,5-b]pyrazin-4-one] | 34
